The source made the active and inactive calls. No cut-off for these calls is given here.
What was measured:
[1] = biological target: T1, Hepatic triacylglycerol lipase (Homo sapiens, UniProt P11150); assay: Inhibition of human HL […] using A10070 as substrate preincubated for 20 min followed by DMPG vesicle doped substrate addition and measured at 20 secs interval for 10 mins by fluorescence assay; type: cell-based
T1 sequence (P11150 whole entry): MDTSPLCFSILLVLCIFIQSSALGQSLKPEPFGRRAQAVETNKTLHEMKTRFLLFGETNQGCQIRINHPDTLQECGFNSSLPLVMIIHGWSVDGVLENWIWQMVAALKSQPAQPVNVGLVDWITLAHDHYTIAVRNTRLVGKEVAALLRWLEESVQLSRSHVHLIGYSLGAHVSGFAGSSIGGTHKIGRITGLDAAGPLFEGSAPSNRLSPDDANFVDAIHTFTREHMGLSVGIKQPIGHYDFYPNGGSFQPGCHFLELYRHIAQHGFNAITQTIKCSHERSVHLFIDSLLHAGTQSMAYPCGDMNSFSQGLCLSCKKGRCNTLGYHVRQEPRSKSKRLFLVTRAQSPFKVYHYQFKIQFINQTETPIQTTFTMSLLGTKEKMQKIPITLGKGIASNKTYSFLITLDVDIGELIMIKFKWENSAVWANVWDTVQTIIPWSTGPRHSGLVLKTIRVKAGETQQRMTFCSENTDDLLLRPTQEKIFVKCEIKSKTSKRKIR

Endothelial lipase [2] = biological target: T2, Endothelial lipase (Homo sapiens, UniProt Q9Y5X9); assay: Inhibition of EL in human HT1080 cells using D31-POPC-HDL as substrate incubated for 2 hrs in presence of human serum by LC/MS analysis; type: cell-based
T2 sequence (Q9Y5X9 whole entry): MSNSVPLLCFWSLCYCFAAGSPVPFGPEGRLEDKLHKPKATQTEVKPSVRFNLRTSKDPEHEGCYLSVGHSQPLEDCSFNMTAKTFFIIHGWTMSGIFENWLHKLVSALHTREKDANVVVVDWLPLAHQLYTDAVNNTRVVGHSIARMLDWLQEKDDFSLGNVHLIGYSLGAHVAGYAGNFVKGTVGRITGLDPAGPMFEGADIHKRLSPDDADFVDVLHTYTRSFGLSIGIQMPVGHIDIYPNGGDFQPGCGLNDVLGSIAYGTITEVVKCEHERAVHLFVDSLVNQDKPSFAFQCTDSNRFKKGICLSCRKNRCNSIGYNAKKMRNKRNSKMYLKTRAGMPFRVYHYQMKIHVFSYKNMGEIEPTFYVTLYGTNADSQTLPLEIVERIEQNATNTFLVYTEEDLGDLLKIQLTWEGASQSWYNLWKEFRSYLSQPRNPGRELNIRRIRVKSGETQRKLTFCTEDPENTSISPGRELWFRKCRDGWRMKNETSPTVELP

[3] = Metabolic stability in human liver microsomes assessed as compound remaining at 0.5 uM incubated for 10 mins; type: ADME, Microsome; conditions: read-out: Stability
[4] = Metabolic stability in mouse liver microsomes assessed as compound remaining at 0.5 uM incubated for 10 mins; type: ADME, Microsome; conditions: read-out: Stability
Endothelial lipase [5] = biological target: T3, Endothelial lipase (Mus musculus, UniProt Q9WVG5); assay: Inhibition of endothelial lipase in hepatic lipase knock-out mouse plasma; type: cell-free
T3 sequence (Q9WVG5 whole entry): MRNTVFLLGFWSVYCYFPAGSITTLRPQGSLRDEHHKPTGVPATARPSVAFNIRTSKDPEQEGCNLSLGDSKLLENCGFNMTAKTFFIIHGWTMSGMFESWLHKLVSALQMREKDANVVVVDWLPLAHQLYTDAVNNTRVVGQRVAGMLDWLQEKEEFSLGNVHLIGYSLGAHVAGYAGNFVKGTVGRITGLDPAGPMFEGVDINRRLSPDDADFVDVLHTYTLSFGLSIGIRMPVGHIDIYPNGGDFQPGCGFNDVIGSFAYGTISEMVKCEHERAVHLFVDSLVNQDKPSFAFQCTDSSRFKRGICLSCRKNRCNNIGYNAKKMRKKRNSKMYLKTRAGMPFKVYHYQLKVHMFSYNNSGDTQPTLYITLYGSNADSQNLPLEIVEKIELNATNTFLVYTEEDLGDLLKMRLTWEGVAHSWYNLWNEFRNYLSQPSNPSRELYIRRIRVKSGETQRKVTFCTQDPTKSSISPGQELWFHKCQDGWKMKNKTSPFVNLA

Endothelial lipase [6] = biological target: T2, Endothelial lipase; assay: Inhibition of EL in human HT1080 cells using A10070 as substrate preincubated for 20 min followed by DMPG vesicle doped substrate addition and measured at 20 secs interval for 10 mins by fluorescence assay; type: cell-based
Endothelial lipase [7] = biological target: T2, Endothelial lipase; assay: Inhibition of EL in human HT1080 cells using D31-POPC-HDL as substrate incubated for 2 hrs in presence of mouse plasma by LC/MS analysis; type: cell-based
[8] = Plasma concentration in C57BL/6 mouse at 50 mg/kg, ip administered as nanosuspension measured after 24 hrs by LC-MS/MS analysis; type: ADME, organism-based
Mus musculus [9] = assay: Antihyperlipidemic activity in C57BL/6 mouse assessed as increase in HDL-C level at 50 mg/kg, ip qd administered as nanosuspension for 2 days measured 6 hrs post-last dose by LC-MS/MS analysis relative to control; type: functional
[10] = Cmax in C57BL/6 mouse at 50 mg/kg, ip administered as nanosuspension measured after 24 hrs by LC-MS/MS analysis; type: ADME, organism-based; parameters: dose 50 mg/kg, route intraperitoneal; conditions: in vivo
[11] = AUC (0 to 24 hrs) in C57BL/6 mouse at 50 mg/kg, ip administered as nanosuspension measured after 24 hrs by LC-MS/MS analysis; type: ADME, organism-based; parameters: dose 50 mg/kg, time < 24 hr, route intraperitoneal; conditions: in vivo
Homo sapiens = species on record: Homo sapiens; assay: Selectivity index, ratio of IC50 for human HL expressed in […] cells to IC50 for EL in human HT1080 cells; type: cell-based
[12] = Metabolic stability in rat liver microsomes assessed as compound remaining at 0.5 uM incubated for 10 mins; type: ADME, Microsome; conditions: read-out: Stability
Mus musculus [13] = assay: Antihyperlipidemic activity in HL knock out C57BL/6 mouse assessed as increase in HDL-C level at 50 mg/kg, ip qd administered as nanosuspension for 2 days measured 6 hrs post-last dose by LC-MS/MS analysis relative to control; type: functional
[14] = Plasma concentration in C57BL/6 mouse at 50 mg/kg, sc measured after 24 hrs by LC-MS/MS analysis; type: ADME, organism-based
[15] = Plasma concentration in C57BL/6 mouse at 50 mg/kg, ip qd administered as nanosuspension for 2 days measured 6 hrs post-last dose by LC-MS/MS analysis; type: ADME, organism-based
[16] = Plasma concentration in C57BL/6 mouse at 50 mg/kg, po measured after 24 hrs by LC-MS/MS analysis; type: ADME, organism-based
Mus musculus [17] = assay: Antihyperlipidemic activity in hCETP/apoB-100 dual transgenic C57BL/6 mouse assessed as increase in HDL-C level at 50 mg/kg, ip bid administered as nanosuspension for 2 days measured 6 hrs post-last dose by FPLC analysis relative to control; type: functional
Mus musculus [18] = assay: Antihyperlipidemic activity in hCETP/apoB-100 dual transgenic C57BL/6 mouse assessed as effect on LDL-C level at 50 mg/kg, ip bid administered as nanosuspension for 2 days measured 6 hrs post-last dose by FPLC analysis; type: functional, organism-based
[19] = Plasma concentration in HL knock out C57BL/6 mouse at 50 mg/kg, ip qd administered as nanosuspension for 2 days measured 6 hrs post-last dose by LC-MS/MS analysis; type: ADME, organism-based
[20] = Plasma concentration in EL knock out C57BL/6 mouse at 50 mg/kg, ip qd administered as nanosuspension for 2 days measured 6 hrs post-last dose by LC-MS/MS analysis; type: ADME, organism-based
Mus musculus [21] = assay: Induction of macrophage-mediated [3H]-cholesterol efflux in C57BL/6 mouse at 50 mg/kg, ip qd administered as nanosuspension for 3 days followed by [3H]-cholesterol addition on day 3 and measured after 2.5 hrs relative to control; type: functional
Mus musculus [22] = assay: Antihyperlipidemic activity in EL knock out C57BL/6 mouse assessed as increase in HDL-C level at 50 mg/kg, ip qd administered as nanosuspension for 2 days measured 6 hrs post-last dose by LC-MS/MS analysis relative to control; type: functional, organism-based

| Structure (SMILES) | IC50 [1] [nM] | IC50 (Endothelial lipase [2]) [nM] | remaining at 10 min, 0.5 µM [3] [%] | remaining at 10 min, 0.5 µM [4] [%] | IC50 (Endothelial lipase [5]) [nM] | IC50 (Endothelial lipase [6]) [nM] | IC50 (Endothelial lipase [7]) [nM] | concentration at 24 h [8] [nM] | Activity (Mus musculus [9]) | also measured |
| --- | --- | --- | --- | --- | --- | --- | --- | --- | --- | --- |
| NS(=O)(=O)NCc1nnc(C(=O)c2nc3cc(-c4ccc(C(=O)NCC(F)(F)F)cc4)c(F)cc3s2)o1 | 4 | 200 | 98 | 100 | 200 | < 0.5 |  |  |  |  |
| CN(Cc1nnc(C(=O)c2nc3ccc(-c4ccccc4)cc3s2)o1)S(N)(=O)=O | 3 | 7000 |  |  |  | 20 | 1000 |  |  |  |
| NS(=O)(=O)NCc1nnc(C(=O)c2nc3cc(-c4ccc5c(c4)CNC5=O)c(F)cc3s2)o1 |  |  |  |  |  |  |  | 460 | 36.9 - 37% |  |
| NC(=O)NCc1nnc(C(=O)c2nc3ccc(-c4ccccc4)cc3s2)o1 | > 10 | 1000 |  |  |  | 30 | 1000 |  |  |  |
| NS(=O)(=O)NCc1nnc(C(=O)c2nc3cc(F)c(C(=O)NCC(F)(F)F)cc3s2)o1 | 4 | 50 | 87 | > 80 | 200 | < 0.5 |  | 250 | 37.8 - 38% | Cmax [10]: 7100 nM; AUC(0-t) at 24 h [11]: 58 µM·h; Ratio IC50 (Homo sapiens): 8; remaining at 10 min, 0.5 µM [12]: > 80% |
| NS(=O)(=O)NCc1nnc(C(=O)c2nc3ccc(-c4ccccc4)cc3s2)o1 |  |  |  |  |  |  |  | 500 | 56% | Activity (Mus musculus [13]): 31.7 - 32%; concentration at 24 h [14]: 190 nM; concentration at 6 h [15]: 520 nM; concentration at 24 h [16]: 250 nM; Activity (Mus musculus [17]): 36%; Activity (Mus musculus [18]): inactive; concentration at 6 h [19]: 11000 nM; concentration at 6 h [20]: 8500 nM; Activity (Mus musculus [21]): 53%; Activity (Mus musculus [22]): inactive |
